pIC50: −log10 of the molar value. Where a SMILES comes first, the peptide text is derived from it. Bridges are numbered along the chain shown (N, C = ends). Where no end group is shown, it is not given here.

This assay deals with T1, rat PAC1 receptor (Rattus norvegicus, UniProt P32215).
T1 construct: SHSY-5Y (human neuroblastoma cell line) and RG-2 (rat glioma cell line) cells endogenously express human and rat PAC1 receptors, respectively; endogenous in cells; host or cells: RG-2 rat glioma cells
T1 sequence (P32215 20-523): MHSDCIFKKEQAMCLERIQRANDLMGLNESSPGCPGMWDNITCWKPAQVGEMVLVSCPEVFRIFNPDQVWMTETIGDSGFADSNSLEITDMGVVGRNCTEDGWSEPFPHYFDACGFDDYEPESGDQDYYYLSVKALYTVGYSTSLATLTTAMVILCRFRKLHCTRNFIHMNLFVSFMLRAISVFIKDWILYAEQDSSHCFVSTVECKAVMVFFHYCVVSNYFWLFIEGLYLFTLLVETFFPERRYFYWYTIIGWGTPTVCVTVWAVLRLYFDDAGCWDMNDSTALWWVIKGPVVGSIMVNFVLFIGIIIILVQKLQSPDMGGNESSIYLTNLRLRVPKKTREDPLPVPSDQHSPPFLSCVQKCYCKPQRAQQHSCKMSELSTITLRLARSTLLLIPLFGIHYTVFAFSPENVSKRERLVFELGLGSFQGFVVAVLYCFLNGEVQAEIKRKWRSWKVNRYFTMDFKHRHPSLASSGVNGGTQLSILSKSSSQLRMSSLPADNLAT
Nature of the assay: LANCE Ultra cAMP accumulation antagonist assay in RG-2 cells.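 Note: RG-2 rat glioma cells endogenously expressing PAC1, test peptide preincubated 30 min, then PAC1 agonist added at its EC80 for 15 min, cAMP accumulation read by LANCE Ultra.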 It is filed as cell-based. (In general: Time-resolved FRET reads energy transfer from a long-lived donor to a nearby acceptor.)
Experimental: In order to determine the potency of peptide antagonists at the PAC1 receptor, functional cAMP accumulation assays using LANCE Ultra cAMP assay kit to measure the agonist and antagonist activity of PAC1 peptides were used. SHSY-5Y (human neuroblastoma cell line) and RG-2 (rat glioma cell line) cells endogenously express human and rat PAC1 receptors, respectively. Agonist activity of PAC1 peptides was tested by incubating with SHSY-5Y at 2,000 cells per well or RG-2 at 5,000 cells per well for 15 minutes at room temperature. PAC1 receptor agonist PACAP38 or maxadilan was included as a positive control. The reaction was stopped by adding detection mixture, europium (Eu) chelate-labeled cAMP tracer and cAMP-specific monoclonal antibodies labeled with the ULight™ dye, to all wells followed by a 60-minute incubation at room temperature. The assay plates were then read on an EnVision instrument at an emission wavelength of 665 and 615 nm and data were analyzed using Genedata Screener or GraphPad Prism software. A similar procedure was used in the antagonist assays by using a fixed concentration of PAC1 agonist. The concentrations of agonists were chosen based on their ECK) values at PAC1 receptors in SHSY-5Y or RG-2 cells. SHSY-5Y or RG-2 cells were added into 96-well half-area white plates. Serially diluted PAC1 peptides at ten concentrations were added and incubated for 30 minutes at room temperature. PAC1 agonist at EC80 concentration was then added and further incubated for 15 minutes at room temperature. The reaction was stopped by adding detection mixture to all wells followed by a 60-minute incubation at room temperature. The assay plates were read and analyzed the same way as that of agonist assay. Cells, agonists, and PAC1 peptides were prepared in freshly made assay buffer (F-12, 0.5 mM IBMX, 0.1 or 0.4% BSA (pH 7.4)). Detection mixture was made by mixing a 1/50 dilution of the Eu-cAMP tracer stock solution in cAMP Detection Buffer and a 1/150 dilution of the ULight-anti-cAMP stock solution in cAMP Detection Buffer. Europium (Eu) chelate-labeled cAMP tracer, cAMP-specific monoclonal antibodies labeled with the ULight™ dye, BSA, and detection buffer were provided in LANCE Ultra cAMP Kit from PerkinElmer
Turning to `CC[C@H](C)[C@H](NC(=O)[C@H](C)NC(=O)[C@H](CCCCN)NC(=O)[C@H](CCCNC(=N)N)NC(=O)[C@H](Cc1ccccc1)NC(=O)[C@H](CCC(N)=O)NC(=O)[C@@H]1CSSC[C@H](N)C(=O)N[C@@H](CC(=O)O)C(=O)N[C@@H](C)C(=O)N[C@@H]([C@@H](C)O)C(=O)N1)C(=O)N[C@@H](CC(=O)O)C(=O)N[C@@H](CC(=O)O)C(=O)N[C@H]1CSSC[C@@H](C(=O)N[C@@H](CC(C)C)C(=O)N[C@@H](CCCCN)C(=O)N[C@@H](CCC(N)=O)C(=O)N[C@@H](CCCCN)C(=O)N[C@@H](CCCCN)C(=O)N[C@@H](CCCCN)C(=O)N[C@@H](CCC(=O)O)C(=O)N[C@@H](Cc2c[nH]c3ccccc23)C(=O)N[C@@H](CCCCN)C(=O)N[C@@H](C)C(=O)NCC(N)=O)NC(=O)[C@H](C)NC(=O)[C@H](CCCCN)NC(=O)[C@H](Cc2ccccc2)NC(=O)[C@H](C(C)C)NC(=O)[C@H](CO)NC(=O)[C@H](CO)NC(=O)[C@H](Cc2c[nH]cn2)NC(=O)[C@H](Cc2ccc(O)cc2)NC(=O)[C@H](C)NC(=O)[C@H](CCC(N)=O)NC(=O)[C@H](CCCNC(=N)N)NC(=O)[C@H](C)NC1=O` [compound 435] (H-CDATCQFRKAIDDCARQAYHSSVFKACLKQKKKEWKAG-NH2; disulfide 1-5, 14-27), the pIC50 is 9.00 to 11.00.

The compound “CDATCQFRKAIDDCQKQAHHSNVPGSVFKACMKQKKKEFKAN-NH2 (disulfide 1-5, 14-31) [compound 205]” gave a pIC50 of 9.00 to 11.00.

The compound `CC[C@H](C)[C@@H]1NC(=O)[C@@H](NC(=O)[C@H](CCCCN)NC(=O)[C@H](CCCNC(=N)N)NC(=O)[C@H](Cc2ccccc2)NC(=O)[C@H](CCC(N)=O)NC(=O)[C@H](CO)NC(=O)[C@@H](NC(=O)[C@H](C)NC(=O)[C@H](CC(=O)O)NC(=O)[C@@H](N)CO)[C@@H](C)O)CSSC[C@@H](C(=O)N[C@@H](CCCCN)C(=O)N[C@@H](CCC(N)=O)C(=O)N[C@@H](CCCCN)C(=O)N[C@@H](CCCCN)C(=O)N[C@@H](CCCCN)C(=O)N[C@@H](CCC(=O)O)C(=O)N[C@@H](Cc2c[nH]c3ccccc23)C(=O)N[C@@H](CCCCN)C(=O)N[C@@H](C)C(=O)NCC(=O)N[C@@H](Cc2c[nH]cn2)C(=O)O)NC(=O)[C@H](CO)NC(=O)[C@H](C)NC(=O)[C@H](CCCCN)NC(=O)[C@H](Cc2ccccc2)NC(=O)[C@H](C)NC(=O)CNC(=O)[C@H](CO)NC(=O)[C@H](CC(=O)O)NC(=O)[C@H](CC(=O)O)NC1=O` [compound 441] (H-SDATSQFRKCIDDSGAFKASCKQKKKEWKAGH-OH; disulfide 10-21) showed a pIC50 of 7.00 to 9.00.

With “CDATCQFRKAIDDCQKQAHHSNVPGSVFKACMKQKKKEFKAGE (disulfide 1-5, 14-31) [compound 173]”, the pIC50 is 9.00 to 11.00.

Take `CSCC[C@H](NC(=O)[C@H](CO)NC(=O)[C@H](C)NC(=O)[C@H](CCCCN)NC(=O)[C@H](Cc1ccccc1)NC(=O)[C@@H](NC(=O)[C@H](CO)NC(=O)[C@H](C)NC(=O)[C@@H](NC(=O)[C@H](CC(C)C)NC(=O)CNC(=O)[C@H](CCCCN)NC(=O)[C@H](CCCNC(=N)N)NC(=O)[C@H](Cc1ccc(O)cc1)NC(=O)[C@H](CCC(N)=O)NC(=O)[C@@H]1CSSC[C@H](N)C(=O)N[C@@H](CC(=O)O)C(=O)N[C@@H](C)C(=O)N[C@@H]([C@@H](C)O)C(=O)N1)C(C)C)C(C)C)C(=O)N[C@@H](CCCCN)C(=O)N[C@@H](CCC(N)=O)C(=O)N[C@@H](CCCCN)C(=O)N[C@@H](CCCCN)C(=O)N[C@@H](CCCCN)C(=O)N[C@@H](CCC(=O)O)C(=O)N[C@@H](Cc1ccccc1)C(=O)N[C@@H](CCCCN)C(=O)N[C@@H](C)C(=O)NCC(=O)O` [compound 438] (H-CDATCQYRKGLVASVFKASMKQKKKEFKAG-OH; disulfide 1-5): the pIC50 was under 7.00.

`CC[C@H](C)[C@H](NC(=O)[C@H](C)NC(=O)[C@H](CCCCN)NC(=O)[C@H](CCCNC(=N)N)NC(=O)[C@H](Cc1ccccc1)NC(=O)[C@H](CCC(N)=O)NC(=O)[C@@H]1CSSC[C@H](N)C(=O)N[C@@H](CC(=O)O)C(=O)N[C@@H](C)C(=O)N[C@@H]([C@@H](C)O)C(=O)N1)C(=O)N[C@@H](CC(=O)O)C(=O)N[C@@H](CC(=O)O)C(=O)N[C@H]1CSSC[C@@H](C(=O)N[C@@H](CCSC)C(=O)N[C@@H](CCCCN)C(=O)N[C@@H](CCC(N)=O)C(=O)N[C@@H](CCCCN)C(=O)N[C@@H](CCCCN)C(=O)N[C@@H](CCCCN)C(=O)N[C@@H](CCC(=O)O)C(=O)N[C@@H](Cc2c[nH]c3ccccc23)C(=O)N[C@@H](CCCCN)C(=O)N[C@@H](C)C(=O)NCC(N)=O)NC(=O)[C@H](C)NC(=O)[C@H](CCCCN)NC(=O)[C@H](Cc2ccccc2)NC(=O)[C@H](C(C)C)NC(=O)[C@H](CO)NC(=O)[C@H](CO)NC(=O)[C@H](Cc2c[nH]cn2)NC(=O)[C@H](Cc2ccc(O)cc2)NC(=O)[C@H](CO)NC(=O)[C@H](CCC(N)=O)NC(=O)[C@H](CCCNC(=N)N)NC(=O)[C@H](C)NC1=O` [compound 432] (H-CDATCQFRKAIDDCARQSYHSSVFKACMKQKKKEWKAG-NH2; disulfide 1-5, 14-27) gave a pIC50 of over 11.00.

The compound “ACDATCQFRKAIDDCQKQAHHSNVPGSVFKACMKQKKKEFKAG-NH2 (disulfide 2-6, 15-32) [compound 184]” had a pIC50 of 9.00 to 11.00.

For `CC[C@H](C)[C@H](NC(=O)[C@H](C)NC(=O)[C@H](CCCCN)NC(=O)[C@H](CCCNC(=N)N)NC(=O)[C@H](Cc1ccccc1)NC(=O)[C@H](CCC(N)=O)NC(=O)[C@@H]1CSSC[C@H](N)C(=O)N[C@@H](CC(=O)O)C(=O)N[C@@H](C)C(=O)N[C@@H]([C@@H](C)O)C(=O)N1)C(=O)N[C@@H](CC(=O)O)C(=O)N[C@@H](CC(=O)O)C(=O)N[C@H]1CSSC[C@@H](C(=O)N[C@@H](CCSC)C(=O)N[C@@H](CCCCN)C(=O)N[C@@H](CCC(N)=O)C(=O)N[C@@H](CCCCN)C(=O)N[C@@H](CCCCN)C(=O)N[C@@H](CCCCN)C(=O)N[C@@H](CCC(=O)O)C(=O)N[C@@H](Cc2c[nH]c3ccccc23)C(=O)N[C@@H](CCCCN)C(=O)N[C@@H](C)C(=O)NCC(=O)N[C@@H](Cc2c[nH]cn2)C(=O)O)NC(=O)[C@H](C)NC(=O)[C@H](CCCCN)NC(=O)[C@H](Cc2ccccc2)NC(=O)[C@H](CO)NC(=O)[C@H](Cc2c[nH]cn2)NC(=O)[C@H](Cc2ccc(O)cc2)NC(=O)[C@H](C)NC(=O)[C@H](CCC(N)=O)NC(=O)[C@H](CCCNC(=N)N)NC(=O)[C@H](C)NC1=O` [compound 439] (H-CDATCQFRKAIDDCARQAYHSFKACMKQKKKEWKAGH-OH; disulfide 1-5, 14-25), the pIC50 is 9.00 to 11.00.

Compound “CDATCQFRKAIDDCQKQAHHSNVPGSVFKACMKQKKKEFKAGGGGS (disulfide 1-5, 14-31) [compound 177]” showed a pIC50 of 9.00 to 11.00.

“CDATCQFRKAIDDCAGTARHSNVPGSVFKACMKQKKKEWKAG-NH2 (disulfide 1-5, 14-31) [compound 446]” gave a pIC50 of 7.00 to 9.00.

Compound `CC[C@H](C)[C@H](NC(=O)[C@H](C)NC(=O)[C@H](CCCCN)NC(=O)[C@H](CCCNC(=N)N)NC(=O)[C@H](Cc1ccccc1)NC(=O)[C@H](CCC(N)=O)NC(=O)[C@@H]1CSSC[C@H](N)C(=O)N[C@@H](CC(=O)O)C(=O)N[C@@H](C)C(=O)N[C@@H]([C@@H](C)O)C(=O)N1)C(=O)N[C@@H](CC(=O)O)C(=O)N[C@@H](CC(=O)O)C(=O)N[C@H]1CSSC[C@@H](C(=O)N[C@@H](CCSC)C(=O)N[C@@H](CCCCN)C(=O)N[C@@H](CCC(N)=O)C(=O)N[C@@H](CCCCN)C(=O)N[C@@H](CCCCN)C(=O)N[C@@H](CCCCN)C(=O)N[C@@H](CCC(=O)O)C(=O)N[C@@H](Cc2c[nH]c3ccccc23)C(=O)N[C@@H](CCCCN)C(=O)N[C@@H](Cc2c[nH]cn2)C(=O)O)NC(=O)[C@H](C)NC(=O)[C@H](CCCCN)NC(=O)[C@H](Cc2ccccc2)NC(=O)[C@H](CO)NC(=O)[C@H](Cc2c[nH]cn2)NC(=O)[C@H](Cc2ccc(O)cc2)NC(=O)[C@H](C)NC(=O)[C@H](CCC(N)=O)NC(=O)[C@H](CCCNC(=N)N)NC(=O)[C@H](C)NC1=O` [compound 450] (H-CDATCQFRKAIDDCARQAYHSFKACMKQKKKEWKH-OH; disulfide 1-5, 14-25) gave a pIC50 of 7.00 to 9.00.

Compound “CDATCQFRKAIDDCQKQAHHSNVPGSVFKACMKQKKKEFKAN (disulfide 1-5, 14-31) [compound 202]” had a pIC50 of 9.00 to 11.00.

For the compound `CC[C@H](C)[C@H](NC(=O)[C@H](C)NC(=O)[C@H](CCCCN)NC(=O)[C@H](CCCNC(=N)N)NC(=O)[C@H](Cc1ccccc1)NC(=O)[C@H](CCC(N)=O)NC(=O)[C@@H]1CSSC[C@H](N)C(=O)N[C@@H](CC(=O)O)C(=O)N[C@@H](C)C(=O)N[C@@H]([C@@H](C)O)C(=O)N1)C(=O)N[C@@H](CC(=O)O)C(=O)N[C@@H](CC(=O)O)C(=O)N[C@H]1CSSC[C@@H](C(=O)N[C@@H](CCSC)C(=O)N[C@@H](CCCCN)C(=O)N[C@@H](CCC(N)=O)C(=O)N[C@@H](CCCCN)C(=O)N[C@@H](CCCCN)C(=O)N[C@@H](CCCCN)C(=O)N[C@@H](CCC(=O)O)C(=O)N[C@@H](Cc2c[nH]c3ccccc23)C(=O)N[C@@H](CCCCN)C(=O)N[C@@H](C)C(=O)N[C@@H](Cc2c[nH]cn2)C(=O)O)NC(=O)[C@H](C)NC(=O)[C@H](CCCCN)NC(=O)[C@H](Cc2ccccc2)NC(=O)[C@H](CO)NC(=O)[C@H](Cc2c[nH]cn2)NC(=O)[C@H](Cc2ccc(O)cc2)NC(=O)[C@H](C)NC(=O)[C@H](CCC(N)=O)NC(=O)[C@H](CCCNC(=N)N)NC(=O)[C@H](C)NC1=O` [compound 451] (H-CDATCQFRKAIDDCARQAYHSFKACMKQKKKEWKAH-OH; disulfide 1-5, 14-25), the pIC50 was 7.00 to 9.00.

In the case of “CDATCQFRKAIDDCQKQAHHSNVPGSVFKSCMKQKKKEFKAG-NH2 (disulfide 1-5, 14-31) [compound 207]”, the pIC50 was 9.00 to 11.00.

One may read the pIC50 as −log10 of the IC50, conventionally taken in molar units. A low value points to a large IC50.

These data come from patent US20210395313A1, “PEPTIDE PAC1 ANTAGONISTS” (AMGEN INC., priority 2017, published 2021).
